Measurements taken from publication PMC9045388, “Identification of a KPC Variant Conferring Resistance to Ceftazidime-Avibactam from ST11 Carbapenem-Resistant Klebsiella pneumoniae Strains” (Microbiology Spectrum, 2022).

Biological target: T1, KPC-2 (Klebsiella pneumoniae, UniProt Q9F663)
T1 construct: untagged, full gene in pCR-BluntII-Topo (pTOPO-KPC-2), expressed in E. coli TOP10; ion exchange and gel filtration
Assay: steady-state hydrolysis, UV-Vis at […] nm
Assay type: biochemical
Conditions: 100 mM sodium phosphate, pH 7.0

T1 sequence (Q9F663 25-293 limits assumed): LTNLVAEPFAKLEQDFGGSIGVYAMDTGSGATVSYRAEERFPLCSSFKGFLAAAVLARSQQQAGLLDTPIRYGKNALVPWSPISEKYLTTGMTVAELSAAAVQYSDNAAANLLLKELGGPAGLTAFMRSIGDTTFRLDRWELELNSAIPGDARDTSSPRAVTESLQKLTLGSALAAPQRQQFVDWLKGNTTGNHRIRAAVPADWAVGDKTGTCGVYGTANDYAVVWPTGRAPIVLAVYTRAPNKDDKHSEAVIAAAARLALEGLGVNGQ

In the case of `O=C(Cc1cccs1)N[C@@H]1C(=O)N2C(C(=O)O)=C(/C=C/c3ccc([N+](=O)[O-])cc3[N+](=O)[O-])CS[C@H]12` [nitrocefin], the Km is reported as 17.9 µM.
